We go through 23 molecules from patent US10005767B2, “Compositions and methods for inhibition of the JAK pathway” (Rigel Pharmaceuticals, Inc., priority 2009, dated 2018).

Molecules are shown by their SMILES. Structures can show the parent of a compound that is named as a salt. Where two headings read alike, the source gives them in different places. Where only a bound is given, the exact number is not on record here.

The subject of this assay is human primary T-cells, IL-2 stimulated proliferation (JAK-1 and JAK-3 dependent; reported as JAK3 activity). As to the kind of experiment: Human primary T-cell proliferation stimulated by IL-2 (Example 3). The note with it: tested under conditions described in Example 3 (IL-2 stimulated human primary T-cell proliferation), read-out: ability to inhibit JAK3 activity, IC50 range (Table V). Type of assay: cell-based. Put shortly:
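Peripheral-blood human T-cells pre-activated via TCR/CD28, IL-2-starved overnight, then cultured 72 h at 37 °C with compound in Yssel's medium containing IL-2 (80 U/mL in cell suspension). Proliferation read as viable-cell ATP by CellTiter-Glo luminescence; reduction versus control taken as JAK pathway inhibition.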

The term IC50 denotes the concentration that inhibits the measured activity by half. Regarding `Cc1cnc(Nc2ccc(OC(C)(C)C(N)=O)nc2)nc1Nc1ccc2oc(=O)[nH]c2c1` [II-146, N2-[2-(1-aminocarbonyl-1-methyl)ethoxypyridin-5-yl]-5-methyl-N4-(2-oxo-2,3-dihydro-1,3-benzoxazol-5-yl)-2,4-pyrimidinediamine], the half-inhibitory concentration (IC50) is less than 500 nM.

As to `Cc1cnc(Nc2cc(C)c(C)c(C)c2)nc1Nc1cc(Cl)c2oc(=O)n(COP(=O)(OC(C)(C)C)OC(C)(C)C)c2c1` [Compound I-524, N4-{3-[bis(1,1-dimethylethoxy)]phosphinyloxymethyl-7-chloro-2-oxo-2,3-dihydro-1,3-benzoxazol-5-yl}-N2-(3,4,5-trimethyl)phenyl-5-methyl-2,4-pyrimidinediamine], the IC50 was greater than 10000 nM.

As for `Cc1cnc(Nc2ccc(C(=O)Nc3ccccc3)c(C(F)(F)F)c2)nc1Nc1ccc2oc(=O)[nH]c2c1` [Compound I-219, 4-(5-methyl-4-(2-oxo-2,3-dihydrobenzo[d]oxazol-5-ylamino)pyrimidin-2-ylamino)-N-phenyl-2-(trifluoromethyl)benzamide], the IC50 (Homo sapiens, T-cell) was less than 500 nM.

Regarding `Cc1cnc(Nc2ccc(C(N)=O)cc2)nc1Nc1ccc2oc(=O)[nH]c2c1` [Compound I-3, N4-(benzo[d]oxazol-2(3H)-on-5-yl)-N2-(4-aminocarbonylphenyl)-5-methylpyrimidine-2,4-diamine], the concentration for half-maximal inhibition (IC50) (Homo sapiens, T-cell) was less than 500 nM.

As to `Cc1cnc(Nc2ccc(C(N)=O)c(Cl)c2)nc1Nc1ccc2oc(=O)[nH]c2c1` [Compound I-141, 2-Chloro-4-[5-methyl-4-(2-oxo-2,3-dihydro-benzooxazol-5-ylamino)-pyrimidin-2-ylamino]-benzamide trifluoroacetic acid salt], the 50% inhibitory concentration (IC50) (Homo sapiens, T-cell) was less than 500 nM.

As to `Cc1cnc(Nc2ccc(N3CC[C@@H](N(C)C)C3)nc2)nc1Nc1ccc2oc(=O)[nH]c2c1` [II-89, (R)-5-(2-(6-(3-(dimethylamino)pyrrolidin-1-yl)pyridin-3-ylamino)-5-methylpyrimidin-4-ylamino)benzo[d]oxazol-2(3H)-one], under “Homo sapiens, T-cell”, the half-inhibitory concentration (IC50) was less than 500 nM.

Turning to `COc1cc(Nc2ncc(C)c(Nc3cc(F)c4oc(=O)[nH]c4c3)n2)cc(C)c1F` [Compound I-492, 7-fluoro-5-(2-(4-fluoro-3-methoxy-5-methylphenylamino)-5-methylpyrimidin-4-ylamino)benzo[d]oxazol-2(3H)-one], the concentration for half-maximal inhibition (IC50) (Homo sapiens, T-cell) was less than 500 nM.

Consider `Cc1cnc(Nc2ccc(N3CCCC3)nc2)nc1Nc1ccc2oc(=O)[nH]c2c1` [II-71, 5-(5-methyl-2-(6-(pyrrolidin-1-yl)pyridin-3-ylamino)pyrimidin-4-ylamino)benzo[d]oxazol-2(3H)-one], for which the half-maximal inhibitory concentration (IC50) (Homo sapiens, T-cell) was less than 500 nM.

In the case of `Cc1cnc(Nc2ccc(F)c(OC(C)(C)C(N)=O)c2)nc1Nc1ccc2oc(=O)[nH]c2c1` [Compound I-386, N2-[3-(1-aminocarbonyl-1-methyl)ethoxy-4-fluoro]phenyl-5-methyl-N4-(2-oxo-2,3-dihydro-1,3-benzoxazol-5-yl)-2,4-pyrimidinediamine], the 50% inhibitory concentration (IC50) is less than 500 nM.

`Cc1cnc(Nc2cnc3c(c2)c(C)nn3C)nc1Nc1ccc2oc(=O)[nH]c2c1` [IV-40, N2-(1,3-dimethyl-1H-pyrazolo[3,4-b]pyridin-5-yl)-5-methyl-N4-(2-oxo-2,3-dihydro-1,3-benzoxazol-5-yl)-2,4-pyrimidinediamine]: the IC50 (Homo sapiens, T-cell) was less than 500 nM.

As for `Cc1cnc(Nc2ccc(N3CCN(C)CC3)c(F)c2)nc1Nc1ccc2oc(=O)[nH]c2c1` [Compound I-281, N2-[3-fluoro-4-(4-methylpiperazino)]phenyl-5-methyl-N4-(2-oxo-2,3-dihydro-1,3-benzoxazol-5-yl)-2,4-pyrimidinediamine], the IC50 is less than 500 nM.

Take `Cc1cnc(Nc2cccc(F)c2)nc1Nc1ccc2oc(=O)[nH]c2c1` [Compound I-368, N2-(3-fluoro)phenyl-5-methyl-N4-(2-oxo-2,3-dihydro-1,3-benzoxazol-5-yl)-2,4-pyrimidinediamine]: the IC50 was less than 500 nM.

Consider `COc1ccc(Nc2ncc(C)c(Nc3ccc4oc(=O)[nH]c4c3)n2)cc1OCCN(C)C` [Compound I-300, N2-{4-methoxy-3-[2-(dimethylamino)ethoxy]}phenyl-5-methyl-N4-(2-oxo-2,3-dihydro-1,3-benzoxazol-5-yl)-2,4-pyrimidinediamine], for which the half-inhibitory concentration (IC50) is less than 500 nM.

For `Cc1cnc(Nc2ccc(N(C)S(C)(=O)=O)cc2)nc1Nc1ccc2oc(=O)[nH]c2c1` [Compound I-93, N2-((4-methylsulfonyl-N-methylamino)phenyl)-N4-(2-oxo-2,3-dihydrobenzo[d]oxazol-5-yl)-5-methylpyrimidine-2,4-diamine], the half-maximal inhibitory concentration (IC50) was less than 500 nM.

For `Cn1c(=O)oc2cc(Nc3nc(Nc4ccc(NS(C)(=O)=O)cc4)ncc3F)ccc21` [Compound I-62, N2-((4-methylsulfonylamino)phenyl)-N4-(3-methyl-2-oxo-2,3-dihydrobenzo[d]oxazol-6-yl)-5-fluoropyrimidine-2,4-diamine], the concentration for half-maximal inhibition (IC50) is 500 to 5000 nM.

Take `Cc1cnc(Nc2ccc(S(C)(=O)=O)cc2)nc1Nc1ccc2[nH]c(=O)oc2c1` [Compound I-101, N2-((4-methylsulfonyl)phenyl)-N4-(2-oxo-2,3-dihydrobenzo[d]oxazol-6-yl)-5-methylpyrimidine-2,4-diamine]: the IC50 was less than 500 nM.

Regarding `CC(=O)N1CCN(c2cccc(Nc3ncc(C)c(Nc4ccc5oc(=O)[nH]c5c4)n3)c2)CC1` [Compound I-345, N2-[3-(4-acetyl)piperazino]phenyl-5-methyl-N4-(2-oxo-2,3-dihydro-1,3-benzoxazol-5-yl)-2,4-pyrimidinediamine], the IC50 was less than 500 nM.

`Cc1cnc(Nc2ccc(OCCCN(C)C)c(C(F)(F)F)c2)nc1Nc1ccc2oc(=O)[nH]c2c1` [Compound I-404, 5-{2-[4-(3-Dimethylamino-propoxy)-3-trifluoromethyl-phenylamino]-5-methyl-pyrimidin-4-ylamino}-3H-benzooxazol-2-one]: under “Homo sapiens, T-cell”, the IC50 was less than 500 nM.

`Cc1cnc(Nc2cccc(C(C)N3CCC3)c2)nc1Nc1ccc2oc(=O)[nH]c2c1` (centres unmarked) [Compound I-211, 5-(2-(3-(1-(azetidin-1-yl)ethyl)phenylamino)-5-methylpyrimidin-4-ylamino)benzo[d]oxazol-2(3H)-one]: for the setting “Homo sapiens, T-cell”, the IC50 is less than 500 nM.

Take `Cc1cnc(Nc2ccc(C(C)NC(C)C)cc2)nc1Nc1ccc2oc(=O)[nH]c2c1` (centres unmarked) [Compound I-207, 5-(2-(4-(1-(isopropylamino)ethyl)phenylamino)-5-methylpyrimidin-4-ylamino)benzo[d]oxazol-2(3H)-one]: the concentration for half-maximal inhibition (IC50) (Homo sapiens, T-cell) is less than 500 nM.

For the molecule `Cc1cnc(Nc2ccc(Cl)c(C(F)(F)F)c2)nc1Nc1ccc2oc(=O)[nH]c2c1` [Compound I-153, 5-[2-(4-Chloro-3-trifluoromethyl-phenylamino)-5-methyl-pyrimidin-4-ylamino]-3H-benzooxazol-2-one], the 50% inhibitory concentration (IC50) (Homo sapiens, T-cell) was less than 500 nM.

Turning to `Cc1cnc(Nc2cc(C)c(C)c(C)c2)nc1Nc1cc(Cl)c2oc(=O)n(COP(=O)(O)O)c2c1` [Compound I-525, N4-[7-chloro-3-(phosphonooxy)methyl-2-oxo-2,3-dihydro-1,3-benzoxazol-5-yl]-5-methyl-N2-(3,4,5-trimethyl)phenyl-2,4-pyrimidinediamine], the IC50 lay within 500 to 5000 nM.

Consider `Cc1cnc(Nc2cccc(-c3cnco3)c2)nc1Nc1ccc2oc(=O)[nH]c2c1` [Compound I-286, 5-methyl-N2-[3-(1,3-oxazol-5-yl)]phenyl-N4-(2-oxo-2,3-dihydro-1,3-benzoxazol-5-yl)-2,4-pyrimidinediamine], for which the IC50 was less than 500 nM.
